# Patent publication US11865176B2, “Compositions and methods of modulating anti-tumor immunity” (Dana-Farber Cancer Institute, Inc., priority 2016, dated 2024)
# Counter-ions that a name gives are not always drawn. Like-named read-outs stand apart in the source and are kept apart here.
# Columns and labels:
# [1] = tested on: PD-1-overexpressing Jurkat cells; test: Small molecule screen: IL2 secretion (AlphaLISA) from stimulated PD-1-overexpressing Jurkat cells; assay type: cell-based, human
# How it was run: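 Cells (100,000/well) with compound at 3.3 μM final, stimulated by α-CD3/α-CD28/α-PD-1 Dynabeads at an 8:1 bead:cell ratio. IL2 in supernatants measured by AlphaLISA. Hits scored ≥3 SD from the mean of DMSO-treated, α-PD-1-bead-stimulated controls.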
# [2] = target: T1, regulatory domain of human NFATc3 (residues 1-400) (UniProt Q12968)
# T1 sequence: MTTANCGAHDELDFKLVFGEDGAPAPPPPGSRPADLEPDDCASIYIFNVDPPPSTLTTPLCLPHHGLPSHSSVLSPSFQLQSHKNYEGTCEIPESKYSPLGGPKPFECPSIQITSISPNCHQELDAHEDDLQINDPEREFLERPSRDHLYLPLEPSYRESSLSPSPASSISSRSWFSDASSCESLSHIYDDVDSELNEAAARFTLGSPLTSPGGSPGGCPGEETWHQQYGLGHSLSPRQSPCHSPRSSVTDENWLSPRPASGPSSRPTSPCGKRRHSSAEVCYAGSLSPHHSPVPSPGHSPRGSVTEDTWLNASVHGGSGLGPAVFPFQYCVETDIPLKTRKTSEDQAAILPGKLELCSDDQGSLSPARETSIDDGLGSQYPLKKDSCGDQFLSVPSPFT
# [3] = IL2 level, replicate 1, 3.3 μM compound, α-CD3/α-CD28/α-PD-1 beads
# [4] = IL2 level, replicate 2, 3.3 μM compound, α-CD3/α-CD28/α-PD-1 beads
# [5] = average of replicate Z scores, 3.3 μM compound
Compound,"Zscore_1 [1, 3]","Zscore_2 [1, 4]","Zscore_AVG [1, 5]",Zscore_1 [1],Zscore_2 [1],Zscore_AVG [1],"in vitro phosphorylation of 15N-labeled NFATc3 (1-400), followed by 2D 15N-HSQC NMR [2]"
O=C(Nc1ccc(Cl)cc1)c1ccccc1NCc1ccncc1 [VEGF Receptor Tyrosine Kinase Inhibitor II],−1.404,−0.1009,−0.7522,,,,
"COc1cc2ncnc(Nc3cccc(O)c3)c2cc1OC [WHI-P180, Hydrochloride]",−4.627,−4.112,−4.37,,,,
CCCCn1c2ccc(O)cc2c2c3c(c(-c4ccccc4Cl)cc21)C(=O)NC3=O [Wee1 Inhibitor II],0.7541,−1.786,−0.5162,,,,
O=C1NC(=O)c2c1c(-c1ccccc1Cl)cc1[nH]c3ccc(O)cc3c21 [Wee1 Inhibitor],−0.6621,−2.209,−1.436,,,,
"CCCCCCCCCCCCCCCCn1cc[n+](Cc2ccccc2)c1C.[I-] [eEF-2 Kinase Inhibitor, NH125]",−4.759,−7.332,−6.046,,,,
"Oc1ccc2ccccc2c1SSc1c(O)ccc2ccccc12 [p21-Activated Kinase Inhibitor III, IPA-3]",−0.461,0.6426,0.09079,,,,
CSc1nc(-c2ccnc(NC(C)c3ccccc3)c2)c(-c2ccc(F)cc2)[nH]1 (stereo not drawn) [p38 MAP Kinase Inhibitor III],−0.7009,0.6426,−0.02917,,,,
O=S(=O)(c1c(O)c(Cl)cc(Cl)c1Cl)c1c(O)c(Cl)cc(Cl)c1Cl [p38 MAP Kinase Inhibitor IV],−0.6495,0.005311,−0.3221,,,,
"COc1cc(SC)ccc1C(=O)N1CCC(Cc2ccccc2)CC1 [p38 MAP Kinase Inhibitor VI, JX401]",−0.3753,−0.9241,−0.6497,,,,
"NC(=O)c1ccc2[nH]ccc2c1 [p38 MAP Kinase Inhibitor VII, SD-169]",0.7558,1.067,0.9116,,,,
O=c1c(-c2ccc(F)cc2)c(-c2ccncc2)[nH]n1-c1ccc(Cl)cc1 [p38 MAP Kinase Inhibitor],,,,−0.7181,−1.986,−1.352,
"Akt Inhibitor XII, Isozyme- Selective, Akti-2",5.536,15.29,10.41,,,,
"CaMKII Inhibitor, CK59",−0.8337,−0.5161,−0.6749,,,,
"Cdk Inhibitor, p35",−1.994,−1.733,−1.864,,,,
"G&omul; 7874, Hydrochloride",−4.465,−6.385,−5.425,,,,
GTP-14564,−0.5638,2.605,1.021,,,,
IKK Inhibitor VII,−6.154,−3.033,−4.594,,,,
IKK-2 Inhibitor XI,−4.485,−6.012,−5.248,,,,

Compound,"Zscore_1 [1, 3]","Zscore_2 [1, 4]","Zscore_AVG [1, 5]",Zscore_1 [1],Zscore_2 [1],Zscore_AVG [1],"in vitro phosphorylation of 15N-labeled NFATc3 (1-400), followed by 2D 15N-HSQC NMR [2]"
Indirubin-3′-monoxime,2.085,1.884,1.985,,,,
Isogranulatinude,1.39,4.572,2.981,,,,
MEK1/2 Inhibitor II,−8.274,−7.766,−8.02,,,,
PDK1/Akt/Flt Dual Pathway Inhibitor,−10.05,−10.59,−10.32,,,,
PI 3-K&gamme;/CKII Inhibitor,−0.8209,−0.5789,−0.6999,,,,
PI 3-KbInhibitor II,,2.315,1.096,,,,
PI 3-Kγ Inhibitor VII,−0.08397,−0.6851,−0.3845,,,,
PIM1 Kinase Inhibitor II,−1.398,−0.8562,−1.127,,,,
PIM1 Kinase Inhibitor IV,−1.455,−0.7294,−1.092,,,,
PIM1/2 Kinase Inhibitor V,−0.917,0.2008,−0.3581,,,,
Polo-like Kinase Inhibitor I,−0.8886,0.6237,−0.1325,,,,
"Scytonemin, Lyngbya sp.",0.1217,−0.3399,−0.1091,,,,
"Staurosporine, N-benzoyl-",−5.987,−7.072,−6.529,,,,
Tpl2 Kinase Inhibitor II,−2.398,−4.19,−3.294,,,,
VEGFR Tyrosine Kinase Inhibitor IV,−0.8723,−2.305,−1.589,,,,
p38 MAP Kinase Inhibitor VIII,−1.144,−1.448,−1.296,,,,
recombinant CDK4/cyclin D1,,,,,,,"However, this did not occur when NFAT4 was incubated with CDK4"
